The values that follow come from paper PMC7698842, “Lanostane Triterpenoid Metabolites from a Penares sp. Marine Sponge Protect Neuro-2a Cells against Paraquat Neurotoxicity” (Molecules, 2020).

Each structure is given as a SMILES string.

As a reminder, the EC50 is the concentration at which the effect is half-maximal.

A short description of this experiment: DPPH radical scavenging assay (cell-free). To be noted: 30 min, MeOH. As for the experimental part:
The 2,2-diphenyl-1-picryl-hydrazyl-hydrate (DPPH) radical scavenging activity was tested as described previously. The compounds were dissolved in MeOH, and the solutions (120 µL) were dispensed into wells of a 96-well microplate. The DPPH (Sigma-Aldrich, Steinheim, Germany) was dissolved in MeOH at a concentration of 7.5 × 10^−3 M and the solution (30 µL) was added to each well. The concentrations of tested compounds in the mixtures were 10 and 100 µM. Ascorbic acid was used as a positive control. The mixtures were shaken and left for 30 min. The absorbance of the resulting solutions was measured at λ = 520 nm with a MultiscanFC plate reader (Thermo Scientific, Waltham, MA, USA). The concentration scavenging 50% of the DPPH radical (EC50) was calculated for each compound.
A general note: DPPH is a stable violet radical that fades when it is reduced.

Compound `O=C1O[C@H]([C@@H](O)CO)C(O)=C1O` [Ascorbic acid, reference compound] yielded an EC50 of 20.5 ± 1.5 µM.
